Experiment [1] concerns the target T1, Adrenergic β2 (Homo sapiens, UniProt P07550).
T1 construct: Adherent H292 cells were removed from tissue culture flasks; endogenous in cells; host or cells: H292 cells
In words: Adrenergic β2 mediated cAMP production in H292 cells (AlphaScreen cAMP detection). In kind it is cell-based. Details: key to β2 Int Act: fraction of formoterol maximum activity (formoterol = 1). Particulars: for β2 Int Act: Intrinsic Activity as a fraction relative to the maximum activity determined for formoterol; for EC50: cAMP production, 60 minutes at room temperature, 300 μM rolipram, read-out: β2 pEC50 (converted). In outline:
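H292 cells pre-treated 10 min with rolipram (300 μM final), then given agonist for 60 min at room temperature in HBSS/10 mM HEPES pH 7.4, 1.6% DMSO final. Lysate cAMP measured by AlphaScreen against a cAMP standard curve. Four-parameter fit gives pEC50; intrinsic activity relative to formoterol maximum.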

In experiment [2] the target is T2, recombinant human adrenergic beta 1 receptors (Homo sapiens, UniProt P08588).
T2 construct: purchased Euroscreen
T2 sequence (P08588 whole entry): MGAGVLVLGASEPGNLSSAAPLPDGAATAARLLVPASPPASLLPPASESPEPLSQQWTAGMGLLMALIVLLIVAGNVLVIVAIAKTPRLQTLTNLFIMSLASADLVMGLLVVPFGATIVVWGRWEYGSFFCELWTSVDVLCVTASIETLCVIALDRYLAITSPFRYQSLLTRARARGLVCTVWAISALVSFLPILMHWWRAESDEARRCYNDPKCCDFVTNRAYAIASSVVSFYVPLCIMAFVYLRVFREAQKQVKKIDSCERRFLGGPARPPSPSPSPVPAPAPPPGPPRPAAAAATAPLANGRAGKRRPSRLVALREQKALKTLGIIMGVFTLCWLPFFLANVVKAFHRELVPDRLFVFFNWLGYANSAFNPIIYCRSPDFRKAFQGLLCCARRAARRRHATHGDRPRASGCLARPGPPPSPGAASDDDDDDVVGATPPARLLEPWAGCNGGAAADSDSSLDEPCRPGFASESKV
In words: Adrenergic β1 selectivity assay, [125I]-Iodocyanopindolol binding to membranes. Particulars: inhibition of [125I]-Iodocyanopindolol binding, read-out: β1 bind pIC50 (converted). Put shortly: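 Displacement of [^125I]-Iodocyanopindolol (0.036 nM final) from human β1 receptor membranes, 2 hours at room temperature, pH 7.4 HEPES/EDTA/NaCl buffer. After filtration, scintillation counting; NSB set with 10 μM propranolol and subtracted. Four-parameter logistic fitting gave pIC50.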

The target of experiment [3] is T3, recombinant human Dopamine Subtype D2s receptors (Homo sapiens, UniProt P14416).
T3 construct: purchased Perkin Elmer
T3 sequence (P14416 1-414 isoform P14416-2): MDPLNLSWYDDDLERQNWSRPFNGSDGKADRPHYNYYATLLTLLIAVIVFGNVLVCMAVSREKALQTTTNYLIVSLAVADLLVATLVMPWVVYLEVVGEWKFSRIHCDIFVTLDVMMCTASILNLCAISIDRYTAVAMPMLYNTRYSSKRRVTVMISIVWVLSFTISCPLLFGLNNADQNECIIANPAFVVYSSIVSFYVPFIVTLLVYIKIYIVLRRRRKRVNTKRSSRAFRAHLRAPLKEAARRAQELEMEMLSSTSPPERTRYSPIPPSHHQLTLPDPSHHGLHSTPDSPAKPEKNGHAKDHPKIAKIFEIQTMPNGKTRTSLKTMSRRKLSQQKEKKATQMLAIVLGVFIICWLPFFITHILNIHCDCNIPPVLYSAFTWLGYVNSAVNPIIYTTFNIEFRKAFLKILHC
The experiment is described as follows: Dopamine D2 selectivity assay, [3H]-spiperone binding to membranes. Particulars: inhibition of [3H]-spiperone binding, read-out: D2 bind pIC50 (converted). Put shortly:
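Human D2s receptor membranes incubated 2 h at room temperature with 0.16 nM [3H]-spiperone and test compound in HEPES buffer pH 7.4 (120 mM NaCl, 0.1% gelatin). Non-specific binding defined with 10 μM haloperidol; filter-bound radioactivity counted, pIC50 from four-parameter logistic fit.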

The text below walks through data of patent US20100056508A1, “AMINE DERIVATIVES AND THEIR USE IN BETA-2-ADRENORECEPTOR MEDIATED DISEASES” (ASTRAZENECA AB, priority 2006, published 2010).

SMILES strings stand for the structures.

T1 sequence (P07550 whole entry): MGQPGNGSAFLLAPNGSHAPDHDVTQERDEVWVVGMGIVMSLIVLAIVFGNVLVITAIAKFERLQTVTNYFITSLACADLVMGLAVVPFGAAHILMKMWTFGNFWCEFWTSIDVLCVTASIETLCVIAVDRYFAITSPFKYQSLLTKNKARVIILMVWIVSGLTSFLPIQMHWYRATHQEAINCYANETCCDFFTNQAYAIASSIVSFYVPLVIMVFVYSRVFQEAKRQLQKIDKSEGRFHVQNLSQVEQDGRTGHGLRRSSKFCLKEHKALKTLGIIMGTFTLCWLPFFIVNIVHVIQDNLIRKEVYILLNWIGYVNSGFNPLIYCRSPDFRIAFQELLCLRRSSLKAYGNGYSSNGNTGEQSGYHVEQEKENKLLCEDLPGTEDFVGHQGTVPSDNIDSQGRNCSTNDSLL

`CCCC[C@@H](C)N(CCNCCc1ccc(O)c2c1OCC(=O)N2)C(=O)CCNCCc1cc(F)ccc1F` [Example 54, (R)-3-(2,5-Difluorophenethylamino)-N-(hexan-2-yl)-N-(2-(2-(5-hydroxy-3-oxo-3,4-dihydro-2H-benzo[b][1,4]oxazin-8-yl)ethylamino)ethyl)propanamide bis(trifluoroacetate)]: the “β2 Int Act” value in experiment [1] stood at 0.96. Further, in experiment [1], the EC50 is 5.01 nM. Besides, the IC50 was 2000 nM in experiment [2] and 31.6 nM in experiment [3].

Take `O=C1COc2c(CCNCCN(C(=O)CCNCCc3cccc(F)c3F)C3CCCCC3)ccc(O)c2N1` [Example 36, N-Cyclohexyl-3-(2,3-difluorophenethylamino)-N-(2-(2-(5-hydroxy-3-oxo-3,4-dihydro-2H-benzo[b][1,4]oxazin-8-yl)ethylamino)ethyl)propanamide bis(trifluoroacetate)]: the “β2 Int Act” value in experiment [1] came out at 0.91. Also, the EC50 in experiment [1] was 1.26 nM. Further, the IC50 in experiment [2] was 3160 nM; in experiment [3] it was 631 nM.

For the compound `CCCC[C@@H](C)N(CCNCCc1ccc(O)c2c1OCC(=O)N2)C(=O)CCNCCc1ccc(F)c(F)c1` [Example 52, (R)-3-(3,4-Difluorophenethylamino)-N-(hexan-2-yl)-N-(2-(2-(5-hydroxy-3-oxo-3,4-dihydro-2H-benzo[b][1,4]oxazin-8-yl)ethylamino)ethyl)propanamide bis(trifluoroacetate)], the “β2 Int Act” value in experiment [1] is 0.95. In addition, the EC50 in experiment [1] is 10 nM. Besides, the IC50 in experiment [2] was 1580 nM; in experiment [3], 63.1 nM.

Regarding `O=C1COc2c(CCNCCN(C(=O)CCNCCc3ccc(F)c(F)c3)C3CCCCC3)ccc(O)c2N1` [Example 42, N-Cyclohexyl-3-(3,4-difluorophenethylamino)-N-(2-(2-(5-hydroxy-3-oxo-3,4-dihydro-2H-benzo[b][1,4]oxazin-8-yl)ethylamino)ethyl)propanamide bis(trifluoroacetate)], in experiment [1], the “β2 Int Act” value is reported as 0.9 and the EC50 was 2 nM. In addition, in experiment [2], the IC50 is 3160 nM. Besides, the IC50 in experiment [3] is 316 nM.

For `CCCC[C@@H](C)N(CCNCCc1ccc(O)c2c1OCC(=O)N2)C(=O)CCNCCc1cccc(F)c1F` [Example 53, (R)-3-(2,3-Difluorophenethylamino)-N-(hexan-2-yl)-N-(2-(2-(5-hydroxy-3-oxo-3,4-dihydro-2H-benzo[b][1,4]oxazin-8-yl)ethylamino)ethyl)propanamide bis(trifluoroacetate)], in experiment [1], the “β2 Int Act” value was 0.99 and the EC50 was 6.31 nM. In addition, in experiment [2], the IC50 is 2510 nM. Also, in experiment [3], the IC50 is 39.8 nM.

As for `O=C1COc2c(CCNCCN(C(=O)CCNCCc3ccc(C(=O)O)cc3)C3CCCCC3)ccc(O)c2N1` [Example 43, 4-(2-(3-(Cyclohexyl(2-(2-(5-hydroxy-3-oxo-3,4-dihydro-2H-benzo[b][1,4]oxazin-8-yl)ethylamino)ethyl)amino)-3-oxopropylamino)ethyl)benzoic acid bis(trifluoroacetate)], the “β2 Int Act” value in experiment [1] is on record as 0.97. Moreover, the EC50 in experiment [1] was 31.6 nM. In addition, the IC50 in experiment [2] and in experiment [3] was more than 10000 nM each time.

On to `CCCC[C@@H](C)N(CCNCCc1ccc(O)c2c1OCC(=O)N2)C(=O)CCNCCc1ccc(Cl)s1` [Example 49, (R)-3-(2-(5-Chlorothiophen-2-yl)ethylamino)-N-(hexan-2-yl)-N-(2-(2-(5-hydroxy-3-oxo-3,4-dihydro-2H-benzo[b][1,4]oxazin-8-yl)ethylamino)ethyl)propanamide bis(trifluoroacetate)], for which, in experiment [1], the “β2 Int Act” value stood at 1.01 and the EC50 is 2.51 nM. For the same compound, the IC50 in experiment [2] is 1000 nM. Besides, the IC50 in experiment [3] was 63.1 nM.

As for `O=C1COc2c(CCNCCN(C(=O)CCNCCc3ccc(F)c(Cl)c3)C3CCCCC3)ccc(O)c2N1` [Example 37, 3-(3-Chloro-4-fluorophenethylamino)-N-cyclohexyl-N-(2-(2-(5-hydroxy-3-oxo-3,4-dihydro-2H-benzo[b][1,4]oxazin-8-yl)ethylamino)ethyl)propanamide bis(trifluoroacetate)], in experiment [1], the “β2 Int Act” value is given as 0.89 and the EC50 was 2 nM. The IC50 in experiment [2] was 1000 nM. In experiment [3], the IC50 is 100 nM.

With `O=C1COc2c(CCNCCN(C(=O)CCNCCc3ccccc3)C3CCCCCC3)ccc(O)c2N1` [Example 24, N-Cycloheptyl-N-(2-(2-(5-hydroxy-3-oxo-3,4-dihydro-2H-benzo[b][1,4]oxazin-8-yl)ethylamino)ethyl)-3-(phenethylamino)propanamide bis(trifluoroacetate)], in experiment [1], the “β2 Int Act” value was found to be 0.85 and the EC50 is 1 nM. Besides, the IC50 in experiment [2] was 631 nM. Besides, the IC50 in experiment [3] was 158 nM.

Regarding `O=C1COc2c(CCNCCN(C(=O)CCNCCc3ccc(Cl)c(Cl)c3)C3CCCCC3)ccc(O)c2N1` [Example 30, N-Cyclohexyl-3-(3,4-dichlorophenethylamino)-N-(2-(2-(5-hydroxy-3-oxo-3,4-dihydro-2H-benzo[b][1,4]oxazin-8-yl)ethylamino)ethyl)propanamide bis(trifluoroacetate)], the “β2 Int Act” value in experiment [1] is reported as 0.92. Moreover, the EC50 in experiment [1] was 3.98 nM. For the same compound, the results for the IC50 in experiment [2] and in experiment [3] were 2510 nM and 50.1 nM, respectively.

For `O=C1COc2c(CCNCCN(C(=O)CCNCCc3cc(F)cc(F)c3)C3CCCCCC3)ccc(O)c2N1` [Example 65, N-Cycloheptyl-3-(3,5-difluorophenethylamino)-N-(2-(2-(5-hydroxy-3-oxo-3,4-dihydro-2H-benzo[b][1,4]oxazin-8-yl)ethylamino)ethyl)propanamide bis(trifluoroacetate)], the “β2 Int Act” value in experiment [1] was found to be 0.93. The EC50 in experiment [1] was 1.58 nM. Also, the values for the IC50 in experiment [2] and in experiment [3] were 2510 nM and 126 nM, respectively.

As to `O=C(CCNCCc1cccc(Cl)c1)N(CCNCCc1ccc(O)c2[nH]c(=O)ccc12)C1CCCCCC1` [Example 3, 3-(3-Chlorophenethylamino)-N-cycloheptyl-N-(2-(2-(8-hydroxy-2-oxo-1,2-dihydroquinolin-5-yl)ethylamino)ethyl)propanamide bis(trifluoroacetate)], in experiment [1], the “β2 Int Act” value was 0.82 and the EC50 is 7.94 nM. The IC50 in experiment [2] is 1260 nM. For the same compound, in experiment [3], the IC50 was 200 nM.

As for `O=C(CCNCCc1cccc(Cl)c1)N(CCNCCc1ccc(O)c2[nH]c(=O)ccc12)C1CCCCC1` [Example 13, 3-(3-Chlorophenethylamino)-N-cyclohexyl-N-(2-(2-(8-hydroxy-2-oxo-1,2-dihydroquinolin-5-yl)ethylamino)ethyl)propanamide bis(trifluoroacetate)], in experiment [1], the “β2 Int Act” value came to 0.86 and the EC50 is 7.94 nM. The IC50 in experiment [2] was more than 10000 nM. Also, in experiment [3], the IC50 is 50.1 nM.

Take `O=C1COc2c(CCNCCN(C(=O)CCNCCc3cc(F)ccc3F)C3CCCCCC3)ccc(O)c2N1` [Example 64, N-Cycloheptyl-3-(2,5-difluorophenethylamino)-N-(2-(2-(5-hydroxy-3-oxo-3,4-dihydro-2H-benzo[b][1,4]oxazin-8-yl)ethylamino)ethyl)propanamide bis(trifluoroacetate)]: the “β2 Int Act” value in experiment [1] is 0.88. The EC50 in experiment [1] is 0.631 nM. The IC50 is 1260 nM in experiment [2] and 63.1 nM in experiment [3].

Consider `O=C(CCNCCc1cccc(F)c1F)N(CCNCCc1ccc(O)c2[nH]c(=O)ccc12)C1CCCCC1` [Example 18, N-Cyclohexyl-3-(3-difluorophenethylamino)-N-(2-(2-(8-hydroxy-2-oxo-1,2-dihydroquinolin-5-yl)ethylamino)ethyl)propanamide bis(trifluoroacetate)], for which, in experiment [1], the “β2 Int Act” value stood at 0.95 and the EC50 is 12.6 nM. In experiment [2], the IC50 was more than 10000 nM. For the same compound, the IC50 in experiment [3] was 3160 nM.

Turning to `O=C1COc2c(CCNCCN(C(=O)CCNCCc3cc(F)cc(Cl)c3)C3CCCCC3)ccc(O)c2N1` [Example 41, 3-(3-Chloro-5-fluorophenethylamino)-N-cyclohexyl-N-(2-(2-(5-hydroxy-3-oxo-3,4-dihydro-2H-benzo[b][1,4]oxazin-8-yl)ethylamino)ethyl)propanamide (trifluoroacetate)], in experiment [1], the “β2 Int Act” value is 0.95 and the EC50 was 3.16 nM. In addition, the IC50 in experiment [2] is more than 7940 nM. Besides, the IC50 in experiment [3] was 200 nM.

Turning to `O=C1COc2c(CCNCCN(C(=O)CCNCCc3ccc(Cl)cc3Cl)C3CCCCC3)ccc(O)c2N1` [Example 31, N-Cyclohexyl-3-(2,4-dichlorophenethylamino)-N-(2-(2-(5-hydroxy-3-oxo-3,4-dihydro-2H-benzo[b][1,4]oxazin-8-yl)ethylamino)ethyl)propanamide bis(trifluoroacetate)], the “β2 Int Act” value in experiment [1] came out at 0.94. Besides, the EC50 in experiment [1] is 6.31 nM. Besides, the IC50 in experiment [2] was 3160 nM; in experiment [3] it was 100 nM.
